Our source for the Kd values is patent US11319299B2, “Substituted carboxamides as inhibitors of WDR5 protein-protein binding” (PROPELLON THERAPEUTICS INC., priority 2016, dated 2022).

pKd: −log10 of the molar value.

For the first assay, the target named is WDR5 (Homo sapiens (Human), UniProt P61964). Nature of the assay: Surface Plasmon Resonance (SPR) assay, KD and residence time. In kind it is binding. As to conditions: surface plasmon resonance (SPR) assay; read-out: WDR5 binding affinity (KD).
Consider `C[C@@H]1CN(c2cc(F)c(-c3ccc(OC(F)(F)F)cc3)cc2NC(=O)c2c[nH]c(=O)cc2C(F)(F)F)C[C@H](C)N1C` [Example 145, N-[4-fluoro-2-[(3R,5S)-3,4,5-trimethylpiperazin-1-yl]-5-[4-(trifluoromethoxy)phenyl]phenyl]-6-oxo-4-(trifluoromethyl)-1H-pyridine-3-carboxamide], for which the pKd – broadly, the Kd on a negative log10 scale, so that one unit is a factor of ten – was 8.17.

For the molecule `C[C@@H]1CN(c2cc(F)c(-c3cccc(CN(C)C4COC4)c3)cc2NC(=O)c2c[nH]c(=O)cc2C(F)(F)F)C[C@H](C)N1C` [Example 118, N-[4-fluoro-5-[3-[[methyl(oxetan-3-yl)amino]methyl]phenyl]-2-[(3R,5S)-3,4,5-trimethylpiperazin-1-yl]phenyl]-6-oxo-4-(trifluoromethyl)-1H-pyridine-3-carboxamide], the pKd is 8.34.

Consider `C[C@@H]1CN(c2cc(F)c(C3=CCN(S(C)(=O)=O)C3)cc2NC(=O)c2c[nH]c(=O)cc2C(F)(F)F)C[C@H](C)N1C` [Example 249, N-[4-fluoro-5-(1-methylsulfonyl-2,5-dihydropyrrol-3-yl)-2-[(3R,5S)-3,4,5-trimethylpiperazin-1-yl]phenyl]-6-oxo-4-(trifluoromethyl)-1H-pyridine-3-carboxamide], for which the pKd is 9.18.

For `C[C@@H]1CN(c2cc(F)c(-c3cnc(N4CCOCC4)nc3)cc2NC(=O)c2ccc(O)cc2C(F)(F)F)C[C@H](C)N1C` [Example 290, N-[4-fluoro-5-(2-morpholin-4-ylpyrimidin-5-yl)-2-[(3R,5S)-3,4,5-trimethylpiperazin-1-yl]phenyl]-4-hydroxy-2-(trifluoromethyl)benzamide], the pKd is 8.05.

On to `Cc1nc(C(=O)Nc2cc(-c3cnc(N4CCOCC4)nc3)c(F)cc2N2CCN(C)C(C)C2)cs1` (stereo in doubt) [Example 194, N-[4-fluoro-5-(2-morpholin-4-ylpyrimidin-5-yl)-2-[(3R)-3,4-dimethylpiperazin-1-yl]phenyl]-2-methyl-1,3-thiazole-4-carboxamide], for which the pKd is 6.95.

Regarding `C[C@@H]1CN(c2cc(F)c(-c3ccc4c(c3)OCCN4C)cc2NC(=O)c2c[nH]c(=O)cc2C(F)(F)F)C[C@H](C)N1C` [Example 71, N-[4-fluoro-5-(4-methyl-2,3-dihydro-1,4-benzoxazin-7-yl)-2-[(3R,5S)-3,4,5-trimethylpiperazin-1-yl]phenyl]-6-oxo-4-(trifluoromethyl)-1H-pyridine-3-carboxamide], the pKd was 9.21.

In the case of `Cc1cc(-c2cc(NC(=O)c3c[nH]c(=O)cc3C(F)(F)F)c(N3C[C@@H](C)N(C)[C@@H](C)C3)cc2F)cnn1` [Example 149, N-[4-fluoro-5-(6-methylpyridazin-4-yl)-2-[(3R,5S)-3,4,5-trimethylpiperazin-1-yl]phenyl]-6-oxo-4-(trifluoromethyl)-1H-pyridine-3-carboxamide], the pKd was 8.33.

`C[C@@H]1CN(c2cc(F)c(C3=CCN(c4ncc(Cl)cn4)CC3)cc2NC(=O)c2c[nH]c(=O)cc2C(F)(F)F)C[C@H](C)N1C` [Example 275, N-[5-[1-(5-chloropyrimidin-2-yl)-3,6-dihydro-2H-pyridin-4-yl]-4-fluoro-2-[(3R,5S)-3,4,5-trimethylpiperazin-1-yl]phenyl]-6-oxo-4-(trifluoromethyl)-1H-pyridine-3-carboxamide]: the pKd was 8.81.

In the case of `CCN(C)[C@@H]1CN(c2cc(F)c(-c3cnc(N4CCOCC4)nc3)cc2NC(=O)c2c[nH]c(=O)cc2C(F)(F)F)C[C@H]1F` [Example 344, N-[4-fluoro-5-(2-morpholin-4-ylpyrimidin-5-yl)-2-[(3R,4R)-3-[ethyl(methyl)amino]-4-fluoropyrrolidin-1-yl]phenyl]-6-oxo-4-(trifluoromethyl)-1H-pyridine-3-carboxamide], the pKd was 7.91.

Consider `C[C@@H]1CN(c2cc(F)c(N3CCN(c4ncccn4)CC3)cc2NC(=O)c2c[nH]c(=O)cc2C(F)(F)F)C[C@H](C)N1C` [Example 393, N-[4-fluoro-5-(4-pyrimidin-2-ylpiperazin-1-yl)-2-[(3R,5S)-3,4,5-trimethylpiperazin-1-yl]phenyl]-6-oxo-4-(trifluoromethyl)-1H-pyridine-3-carboxamide], for which the pKd is 7.88.

Take `C[C@@H]1CN(c2cc(F)c(C3=CCN(C(=O)OC(C)(C)C)CC3)cc2NC(=O)c2c[nH]c(=O)cc2C(F)(F)F)C[C@H](C)N1C` [Example 143, tert-butyl 4-[2-fluoro-5-[[6-oxo-4-(trifluoromethyl)-1H-pyridine-3-carbonyl]amino]-4-[(3R,5S)-3,4,5-trimethylpiperazin-1-yl]phenyl]-3,6-dihydro-2H-pyridine-1-carboxylate]: the pKd is 8.91.

`CC1CN(c2cc(F)c(-c3cnc(N4CCOCC4)nc3)cc2NC(=O)c2ccc(F)cc2C(F)(F)F)CCN1C` (stereo in doubt) [Example 298, 4-fluoro-N-[4-fluoro-5-(2-morpholin-4-ylpyrimidin-5-yl)-2-[(3R)-3,4-dimethylpiperazin-1-yl]phenyl]-2-(trifluoromethyl)benzamide]: the pKd was 8.37.

The same assay, now with this note: surface plasmon resonance (SPR); read-out: WDR5 binding affinity (KD).
Turning to `C[C@@H]1CN(c2cc(F)c(C3=CCN(C(=O)c4cnccn4)C3)cc2NC(=O)c2c[nH]c(=O)cc2C(F)(F)F)C[C@H](C)N1C` [Example 442, N-[4-fluoro-5-[1-(pyrazine-2-carbonyl)-2,5-dihydropyrrol-3-yl]-2-[(3R,5S)-3,4,5-trimethylpiperazin-1-yl]phenyl]-6-oxo-4-(trifluoromethyl)-1H-pyridine-3-carboxamide], the pKd is 8.44.

`C[C@@H]1CN(c2cc(F)c(-c3csc(CN4CCOCC4)n3)cc2NC(=O)c2cn(C)c(=O)cc2C(F)F)C[C@H](C)N1C` [Example 749, 4-(difluoromethyl)-N-[4-fluoro-5-[2-(morpholin-4-ylmethyl)-1,3-thiazol-4-yl]-2-[(3R,5S)-3,4,5-trimethylpiperazin-1-yl]phenyl]-1-methyl-6-oxopyridine-3-carboxamide]: the pKd was 7.97.

`C[C@@H]1CN(c2ncc(-c3cc(NC(=O)c4ccc(F)cc4C(F)(F)F)c(N4C[C@@H](C)N(C)[C@@H](C)C4)cc3F)cn2)CCO1` [Example 545, 4-fluoro-N-[4-fluoro-5-[2-[(2R)-2-methylmorpholin-4-yl]pyrimidin-5-yl]-2-[(3R,5S)-3,4,5-trimethylpiperazin-1-yl]phenyl]-2-(trifluoromethyl)benzamide]: the pKd was 8.47.

With `C[C@@H]1CN(c2cc(F)c(-c3cc(F)c(C(N)=O)c(F)c3)cc2NC(=O)c2c[nH]c(=O)cc2C(F)(F)F)C[C@H](C)N1C` [Example 658, N-[5-(4-carbamoyl-3,5-difluorophenyl)-4-fluoro-2-[(3R,5S)-3,4,5-trimethylpiperazin-1-yl]phenyl]-6-oxo-4-(trifluoromethyl)-1H-pyridine-3-carboxamide], the pKd was 8.73.

On to `C[C@@H]1CN(c2cc(F)c(-c3cc(F)c(=O)n(C)c3)cc2NC(=O)c2c[nH]c(=O)cc2C(F)(F)F)C[C@H](C)N1C` [Example 564, N-[4-fluoro-5-(5-fluoro-1-methyl-6-oxopyridin-3-yl)-2-[(3R,5S)-3,4,5-trimethylpiperazin-1-yl]phenyl]-6-oxo-4-(trifluoromethyl)-1H-pyridine-3-carboxamide], for which the pKd is 8.82.

In the case of `CC1CN(c2cc(F)c(-c3ccnc(N4C[C@@H](C)O[C@@H](C)C4)n3)cc2NC(=O)c2ccc(F)cc2C(F)(F)F)CCN1C` (stereo in doubt) [Example 739, 4-fluoro-N-[4-fluoro-5-[2-[(2R,6S)-2,6-dimethylmorpholin-4-yl]pyrimidin-4-yl]-2-[(3R)-3,4-dimethylpiperazin-1-yl]phenyl]-2-(trifluoromethyl)benzamide], the pKd is 8.52.

Consider `C[C@@H]1CN(c2cc(F)c(-c3cncc(NC(=O)OCc4ccccc4)c3)cc2NC(=O)c2c[nH]c(=O)cc2C(F)(F)F)C[C@H](C)N1C` [Example 563, benzyl N-[5-[2-fluoro-5-[[6-oxo-4-(trifluoromethyl)-1H-pyridine-3-carbonyl]amino]-4-[(3R,5S)-3,4,5-trimethylpiperazin-1-yl]phenyl]pyridin-3-yl]carbamate], for which the pKd is 8.48.

Take `CC1CN(c2cc(F)c(-c3cnc(N4CCC(C)(O)CC4)nc3)cc2NC(=O)c2ccc(F)cc2C(F)(F)F)CCN1C` (stereo in doubt) [Example 613, 4-fluoro-N-[4-fluoro-5-[2-(4-hydroxy-4-methylpiperidin-1-yl)pyrimidin-5-yl]-2-[(3R)-3,4-dimethylpiperazin-1-yl]phenyl]-2-(trifluoromethyl)benzamide]: the pKd is 9.04.

`CC1CN(c2cc(F)c(-c3cnc(N4CCC(C)(O)CC4)nc3)cc2NC(=O)c2c[nH]c(=O)cc2C(F)(F)F)CCN1C` (stereo in doubt) [Example 424, N-[4-fluoro-5-[2-(4-hydroxy-4-methylpiperidin-1-yl)pyrimidin-5-yl]-2-[(3R)-3,4-dimethylpiperazin-1-yl]phenyl]-6-oxo-4-(trifluoromethyl)-1H-pyridine-3-carboxamide]: the pKd is 9.22.

As to `C[C@@H]1CN(c2cc(F)c(C3=CCCN(c4ccnc(C#N)n4)C3)cc2NC(=O)c2c[nH]c(=O)cc2C(F)(F)F)C[C@H](C)N1C` [Example 701, N-[5-[1-(2-cyanopyrimidin-4-yl)-3,6-dihydro-2H-pyridin-5-yl]-4-fluoro-2-[(3R,5S)-3,4,5-trimethylpiperazin-1-yl]phenyl]-6-oxo-4-(trifluoromethyl)-1H-pyridine-3-carboxamide], the pKd was 8.76.

`C[C@@H]1CN(c2cc(F)c(-c3cc(C(N)=O)c(F)cc3F)cc2NC(=O)c2ccc(F)cc2C(F)(F)F)C[C@H](C)N1C` [Example 634, 2,4-difluoro-5-[2-fluoro-5-[[4-fluoro-2-(trifluoromethyl)benzoyl]amino]-4-[(3R,5S)-3,4,5-trimethylpiperazin-1-yl]phenyl]benzamide]: the pKd was 7.16.

Turning to `C[C@@H]1CN(c2cc(F)c(-c3ccc(C(N)=O)c(F)c3F)cc2NC(=O)c2ccc(F)cc2C(F)(F)F)C[C@H](C)N1C` [Example 667, 2,3-difluoro-4-[2-fluoro-5-[[4-fluoro-2-(trifluoromethyl)benzoyl]amino]-4-[(3R,5S)-3,4,5-trimethylpiperazin-1-yl]phenyl]benzamide], the pKd is 8.02.
